Experimental data taken from patent US7996068B2, “Surgical method and apparatus for identification of fluorescence” (The Board of Trustees of the Leland Stanford Junior …, priority 2007, dated 2011).

Key:
[1] = human, in vivo
Excerpt: In some embodiments, intravenous fluorescein can be used as the fluorescent agent.

[2] = human, cited from earlier work

O=C1OC2(c3ccc(O)cc3Oc3cc(O)ccc32)c2ccccc21 [fluorescein]
concentration of fluorescein in urine [1]: about 0.1 mg/ml | concentration of fluorescein in urine relative to concentration in the blood [1]: about 5 × | rate of drug excreted into the ureters [1]: 0.05 mg/min | fraction of dose metabolized ([2]; 14 mg/kg dose, IV, within 1 hour of administration): 80% | time the urine remains slightly fluorescent post dose ([2]; post dose): 24 to 36 h | volume of distribution [2]: 0.5 L/kg
